The record followed here is patent US20250353864A1, “INDAZOLE CONTAINING MACROCYCLES AND THEIR USE” (BLOSSOMHILL THERAPEUTICS, INC., priority 2022, published 2025).

Where only a bound is given, the exact number is not on record here.

What all share (assay type): biochemical
The target in one experiment is EGFR WT (Homo sapiens (Human), UniProt P00533). Put plainly: HotSpot radiometric kinase assay (Reaction Biology), EGFR WT. As to conditions: 10 μM ATP. Put shortly:
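Kinase, substrate and cofactors are mixed in 20 mM Hepes pH 7.5 with 10 mM MgCl2, 1 mM EGTA, 2 mM DTT and 1% DMSO. Compound is added, and about 20 min later ATP/33P-ATP (10 μM final) starts a 120-min room-temperature reaction, which is then spotted onto P81 paper.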

The target in another experiment is EGFR (D770_N771insNPG) (Homo sapiens (Human), UniProt P00533, INS770NPG). Put plainly: HotSpot radiometric kinase assay, EGFR (D770_N771insNPG). Conditions: 10 μM ATP, read-out: EGFR (Δ770_N771insNPG) IC50. Put shortly: (§1)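 Radiometric filter-binding assay with EGFR mutant kinase/substrate pairs in 20 mM Hepes pH 7.5 with Mg, EGTA, Brij35, BSA, Na3VO4, DTT, 1% DMSO. Compound preincubated ~20 min, then ATP/^33P-ATP added at 10 μM final. Reaction 120 min at room temperature, spotted on P81 paper; IC50 from curve fits.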

The target of a further experiment is EGFR Δ746-750 mutant (Homo sapiens (Human), UniProt P00533, DEL746-750). Description: HotSpot radiometric kinase assay, EGFR Δ746-750 mutant. Conditions: 10 μM ATP. Put shortly:
as §1

Experiment [1] addresses EGFR Δ746-750/C797S mutant (Homo sapiens (Human), UniProt P00533, C797S/DEL746-750). Description: HotSpot radiometric kinase assay, EGFR Δ746-750/C797S mutant. Conditions: 10 μM ATP. The gist of the method:
as §1

The target of another experiment is EGFR L858R mutant (Homo sapiens (Human), UniProt P00533, L858R). Put plainly: HotSpot radiometric kinase assay, EGFR L858R mutant. Conditions: 10 μM ATP. Put shortly:
as §1

The target in the next experiment is EGFR L858R/T790M mutant (Homo sapiens (Human), UniProt P00533, L858R/T790M). Description: HotSpot radiometric kinase assay, EGFR L858R/T790M mutant. Conditions: 10 μM ATP. The gist of the method: as §1
The target of experiment [2] is EGFR L858R/T790M/C797S mutant (Homo sapiens (Human), UniProt P00533, C797S/L858R/T790M). Put plainly: HotSpot radiometric kinase assay, EGFR L858R/T790M/C797S mutant. Conditions: 10 μM ATP. Put shortly: as §1
The target of a further experiment is CLK1 (Homo sapiens (Human), UniProt P49759). Put plainly: Inhibition of CLK1 kinase activity evaluated at Nanosyn (ADP-Glo). As to conditions: ADP-Glo luminescence. Here is the method: (§2) Inhibition of CLK, CLK2, CLK3 and CLK4 Kinase Activity Evaluated at Nanosyn
(§3) Kinase protein and substrate were pre-diluted in the HEPES assay buffer (100 mM HEPES, pH 7.5, 0.01% Triton X-100, 0.1% BSA, 5 mM MgCl2, […] DTT, 10 Sodium Orthovanadate, […] Beta-Glycerophosphate) dispensed into 384 well plate (5 μL per well). Control samples (0%-inhibition in the absence of inhibitor, DMSO only) and 100%-inhibition (in the absence of enzyme) were assembled in replicates of six and were used to calculate %-inhibition in the presence of compounds. Test compounds were added to the protein samples by acoustic dispensing (Labcyte Echo550). Concentration of DMSO was equalized to 1% in all samples. Reactions were initiated by addition of ATP by acoustic dispensing (Labcyte Echo550) and incubated according to assay specific incubation time. After incubation. 5 μL of Promega ADP-Glo reagent was added and incubated for 40 minutes. After 40 minutes, 10 uL of Promega kinase detection reagent was added. After 10 min of incubation with Kinase detection reagent, the luminescence was read on microplate reader (Biotek Synergy).

Another experiment has as its target CLK2 (Homo sapiens (Human), UniProt P49760). Description: Inhibition of CLK2 kinase activity evaluated at Nanosyn (ADP-Glo). As to conditions: ADP-Glo luminescence. How it is done: as §2, §3
The next experiment concerns the target CLK3 (Homo sapiens (Human), UniProt P49761). Put plainly: Inhibition of CLK3 kinase activity evaluated at Nanosyn (ADP-Glo). As to conditions: ADP-Glo luminescence. How it is done:
as §2, §3

A further experiment deals with CLK4 (Homo sapiens (Human), UniProt Q9HAZ1). Description: Inhibition of CLK4 kinase activity evaluated at Nanosyn (ADP-Glo). Conditions: ADP-Glo luminescence. How it is done:
as §2, §3

EGFR WT, sequence (P00533 25-1210): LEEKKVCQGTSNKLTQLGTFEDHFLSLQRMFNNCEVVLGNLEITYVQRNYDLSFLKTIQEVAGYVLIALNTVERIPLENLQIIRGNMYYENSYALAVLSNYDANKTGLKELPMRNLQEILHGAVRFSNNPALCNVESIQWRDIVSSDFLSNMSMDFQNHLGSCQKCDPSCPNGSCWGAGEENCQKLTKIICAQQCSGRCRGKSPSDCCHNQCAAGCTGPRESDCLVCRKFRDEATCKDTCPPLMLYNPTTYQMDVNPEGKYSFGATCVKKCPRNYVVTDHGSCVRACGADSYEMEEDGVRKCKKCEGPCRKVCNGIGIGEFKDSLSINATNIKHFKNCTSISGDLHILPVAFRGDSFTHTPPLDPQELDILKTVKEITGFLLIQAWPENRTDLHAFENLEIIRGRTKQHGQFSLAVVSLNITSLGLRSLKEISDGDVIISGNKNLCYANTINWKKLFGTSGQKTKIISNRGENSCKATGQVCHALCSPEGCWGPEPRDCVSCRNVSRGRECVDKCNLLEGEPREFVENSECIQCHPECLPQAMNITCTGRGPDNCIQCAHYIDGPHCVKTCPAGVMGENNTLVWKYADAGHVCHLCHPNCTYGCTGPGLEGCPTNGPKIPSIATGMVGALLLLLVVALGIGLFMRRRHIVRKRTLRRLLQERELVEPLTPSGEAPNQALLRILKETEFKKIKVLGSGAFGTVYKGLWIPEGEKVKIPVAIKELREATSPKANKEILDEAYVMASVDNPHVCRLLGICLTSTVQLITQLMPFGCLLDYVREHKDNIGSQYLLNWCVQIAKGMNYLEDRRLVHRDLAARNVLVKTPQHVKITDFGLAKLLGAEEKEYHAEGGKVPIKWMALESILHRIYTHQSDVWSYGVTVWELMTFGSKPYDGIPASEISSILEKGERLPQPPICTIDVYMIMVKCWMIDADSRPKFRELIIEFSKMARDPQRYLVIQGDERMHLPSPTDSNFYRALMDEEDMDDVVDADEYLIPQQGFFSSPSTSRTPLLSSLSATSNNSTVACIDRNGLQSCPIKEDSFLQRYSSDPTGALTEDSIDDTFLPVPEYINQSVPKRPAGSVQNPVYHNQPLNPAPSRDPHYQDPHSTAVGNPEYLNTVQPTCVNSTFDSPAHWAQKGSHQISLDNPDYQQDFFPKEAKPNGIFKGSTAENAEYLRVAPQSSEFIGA
CLK1, sequence (P49759 whole entry): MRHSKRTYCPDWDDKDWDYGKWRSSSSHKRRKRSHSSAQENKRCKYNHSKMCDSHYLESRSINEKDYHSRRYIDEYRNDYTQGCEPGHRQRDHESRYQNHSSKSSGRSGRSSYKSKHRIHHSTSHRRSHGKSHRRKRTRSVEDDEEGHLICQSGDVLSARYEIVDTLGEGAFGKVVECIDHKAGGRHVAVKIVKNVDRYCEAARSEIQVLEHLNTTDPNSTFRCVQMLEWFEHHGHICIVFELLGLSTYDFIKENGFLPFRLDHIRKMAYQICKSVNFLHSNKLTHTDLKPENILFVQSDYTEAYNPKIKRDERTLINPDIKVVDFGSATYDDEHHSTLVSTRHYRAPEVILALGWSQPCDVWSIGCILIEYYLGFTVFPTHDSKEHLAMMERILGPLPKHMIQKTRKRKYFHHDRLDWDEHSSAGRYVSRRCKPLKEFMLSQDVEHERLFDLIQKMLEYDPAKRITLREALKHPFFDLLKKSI
EGFR L858R/T790M mutant, sequence (P00533 25-1210 T790M/L858R): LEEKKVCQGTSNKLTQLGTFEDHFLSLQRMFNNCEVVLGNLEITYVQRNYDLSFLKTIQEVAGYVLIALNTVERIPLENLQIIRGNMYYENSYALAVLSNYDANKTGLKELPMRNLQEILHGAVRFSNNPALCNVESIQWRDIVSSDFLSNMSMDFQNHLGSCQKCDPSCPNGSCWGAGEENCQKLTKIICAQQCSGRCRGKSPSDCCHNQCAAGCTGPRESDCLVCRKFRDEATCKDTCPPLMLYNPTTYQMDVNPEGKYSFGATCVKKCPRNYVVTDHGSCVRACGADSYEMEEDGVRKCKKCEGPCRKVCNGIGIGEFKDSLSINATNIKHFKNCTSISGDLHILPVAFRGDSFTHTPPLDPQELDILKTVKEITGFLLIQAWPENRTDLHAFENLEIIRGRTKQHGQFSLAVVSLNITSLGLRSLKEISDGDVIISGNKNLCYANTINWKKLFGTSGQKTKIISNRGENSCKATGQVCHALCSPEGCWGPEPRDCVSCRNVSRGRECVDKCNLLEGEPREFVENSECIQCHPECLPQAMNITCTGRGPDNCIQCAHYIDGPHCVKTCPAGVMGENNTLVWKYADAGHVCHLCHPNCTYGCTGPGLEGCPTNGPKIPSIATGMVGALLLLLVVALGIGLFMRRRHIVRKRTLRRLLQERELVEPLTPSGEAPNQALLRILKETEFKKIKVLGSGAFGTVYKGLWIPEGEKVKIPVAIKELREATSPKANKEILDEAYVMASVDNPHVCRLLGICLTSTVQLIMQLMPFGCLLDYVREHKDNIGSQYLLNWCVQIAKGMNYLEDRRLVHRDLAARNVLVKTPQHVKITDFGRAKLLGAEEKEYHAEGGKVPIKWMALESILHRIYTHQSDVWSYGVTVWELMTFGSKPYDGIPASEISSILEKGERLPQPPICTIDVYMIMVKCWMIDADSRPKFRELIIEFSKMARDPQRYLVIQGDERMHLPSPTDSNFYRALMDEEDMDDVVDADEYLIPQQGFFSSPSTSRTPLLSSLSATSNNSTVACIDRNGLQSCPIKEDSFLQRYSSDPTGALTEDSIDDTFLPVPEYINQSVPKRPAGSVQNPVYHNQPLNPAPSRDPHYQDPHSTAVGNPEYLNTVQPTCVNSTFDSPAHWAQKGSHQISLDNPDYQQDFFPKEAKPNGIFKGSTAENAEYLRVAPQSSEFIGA
EGFR L858R mutant, sequence (P00533 25-1210 L858R): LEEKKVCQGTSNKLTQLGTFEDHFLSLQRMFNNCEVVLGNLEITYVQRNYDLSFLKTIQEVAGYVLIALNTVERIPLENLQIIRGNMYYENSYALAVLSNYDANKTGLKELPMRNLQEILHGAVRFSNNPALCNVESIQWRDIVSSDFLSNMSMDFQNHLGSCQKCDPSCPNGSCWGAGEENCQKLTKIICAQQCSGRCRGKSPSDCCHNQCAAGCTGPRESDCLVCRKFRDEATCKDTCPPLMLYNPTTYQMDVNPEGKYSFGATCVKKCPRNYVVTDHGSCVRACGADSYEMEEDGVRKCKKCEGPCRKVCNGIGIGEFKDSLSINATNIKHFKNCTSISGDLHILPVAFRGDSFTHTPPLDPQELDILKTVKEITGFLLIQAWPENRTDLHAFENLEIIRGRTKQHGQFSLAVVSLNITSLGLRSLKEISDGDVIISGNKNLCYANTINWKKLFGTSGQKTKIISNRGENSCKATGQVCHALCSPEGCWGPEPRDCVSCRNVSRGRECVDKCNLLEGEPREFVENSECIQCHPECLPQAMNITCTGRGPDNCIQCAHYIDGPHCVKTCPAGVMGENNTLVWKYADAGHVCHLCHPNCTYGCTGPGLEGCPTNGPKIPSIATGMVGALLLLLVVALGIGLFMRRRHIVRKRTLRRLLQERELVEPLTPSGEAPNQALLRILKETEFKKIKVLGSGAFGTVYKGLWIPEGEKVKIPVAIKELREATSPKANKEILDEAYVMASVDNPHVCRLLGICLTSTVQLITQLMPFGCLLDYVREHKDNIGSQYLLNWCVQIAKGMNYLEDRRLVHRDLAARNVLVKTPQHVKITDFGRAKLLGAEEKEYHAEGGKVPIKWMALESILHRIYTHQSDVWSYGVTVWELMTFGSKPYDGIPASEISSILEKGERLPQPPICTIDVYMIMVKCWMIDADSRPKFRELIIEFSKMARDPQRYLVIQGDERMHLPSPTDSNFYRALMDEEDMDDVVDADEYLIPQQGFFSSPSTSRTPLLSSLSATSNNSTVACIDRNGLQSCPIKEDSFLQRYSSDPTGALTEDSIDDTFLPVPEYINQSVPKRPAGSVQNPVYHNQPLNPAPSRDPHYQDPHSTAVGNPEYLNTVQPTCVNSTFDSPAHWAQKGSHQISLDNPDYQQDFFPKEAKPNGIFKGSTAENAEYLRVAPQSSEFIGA
CLK4, sequence (Q9HAZ1 whole entry): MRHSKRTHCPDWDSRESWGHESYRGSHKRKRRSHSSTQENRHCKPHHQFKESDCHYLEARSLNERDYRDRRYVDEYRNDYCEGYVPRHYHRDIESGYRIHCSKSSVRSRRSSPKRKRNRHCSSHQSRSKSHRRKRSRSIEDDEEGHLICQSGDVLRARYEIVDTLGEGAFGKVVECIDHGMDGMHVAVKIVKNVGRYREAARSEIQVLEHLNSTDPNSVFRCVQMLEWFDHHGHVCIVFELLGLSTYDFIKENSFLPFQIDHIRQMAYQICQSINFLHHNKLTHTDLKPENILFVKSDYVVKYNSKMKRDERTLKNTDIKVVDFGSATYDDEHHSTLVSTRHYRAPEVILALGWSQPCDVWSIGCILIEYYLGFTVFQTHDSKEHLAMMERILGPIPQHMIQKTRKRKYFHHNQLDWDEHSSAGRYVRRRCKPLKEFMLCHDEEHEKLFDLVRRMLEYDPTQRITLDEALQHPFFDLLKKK
CLK2, sequence (P49760 whole entry): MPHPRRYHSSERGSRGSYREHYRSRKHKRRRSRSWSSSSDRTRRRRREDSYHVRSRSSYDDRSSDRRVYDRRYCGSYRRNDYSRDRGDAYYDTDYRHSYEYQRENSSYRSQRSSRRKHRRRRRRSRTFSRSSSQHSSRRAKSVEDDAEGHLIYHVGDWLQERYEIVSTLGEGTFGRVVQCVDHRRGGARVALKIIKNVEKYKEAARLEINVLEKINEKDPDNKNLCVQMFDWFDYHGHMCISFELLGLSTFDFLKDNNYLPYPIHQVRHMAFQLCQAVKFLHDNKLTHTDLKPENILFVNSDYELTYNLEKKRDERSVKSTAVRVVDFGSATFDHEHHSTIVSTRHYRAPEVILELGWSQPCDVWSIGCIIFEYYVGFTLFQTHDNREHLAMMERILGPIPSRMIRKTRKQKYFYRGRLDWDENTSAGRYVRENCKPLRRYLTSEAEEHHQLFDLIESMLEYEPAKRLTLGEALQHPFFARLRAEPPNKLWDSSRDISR

`Cc1nn(C)c2c1/C=C/c1n[nH]c3ccc(cc13)-c1cnn(C)c1O[C@@H](C)CN(C)[C@@H]2C` (single isomer, unassigned) [Example 144]: the IC50 stood at 8.81 nM against EGFR WT; 24.5 nM at EGFR (D770_N771insNPG); 1.88 nM at EGFR Δ746-750 mutant; 1.93 nM in experiment [1]; 1.47 nM at EGFR L858R mutant; 0.41 nM against EGFR L858R/T790M mutant. The IC50 in experiment [2] came to 0.7 nM; at CLK1 it was 0.21 nM; at CLK2 it was 0.05 nM; on CLK3, 168 nM; at CLK4 it was 0.55 nM.

In the case of `CC(C)Oc1nn(CCO)c2c1/C=C/c1n[nH]c3cc(F)c(cc13)-c1cnn(C)c1O[C@H](C)[C@H]1CCCN1C2` (single isomer, unassigned) [Example 255], the concentration for half-maximal inhibition (IC50) against EGFR WT is 1.43 nM; on EGFR (D770_N771insNPG) it was 4.05 nM; on EGFR Δ746-750 mutant, 0.95 nM; in experiment [1] it was 1.98 nM; against EGFR L858R mutant, 1.18 nM; on EGFR L858R/T790M mutant, 3.01 nM. Also, the IC50 was 6.62 nM in experiment [2]; 0.82 nM at CLK1; 0.27 nM at CLK2; 9.89 nM at CLK3; 1.6 nM at CLK4.

Consider `CCOc1nn(C)c2c1/C=C/c1n[nH]c3cc(F)c(cc13)-c1cnn(C)c1OC1CCCN(C2)C1` (stereo in doubt) [Example 178], for which the IC50 came out at 22.2 nM on EGFR WT; 232 nM on EGFR (D770_N771insNPG); 6.9 nM at EGFR Δ746-750 mutant; 5.25 nM in [1]; 8.73 nM against EGFR L858R mutant; 4.35 nM at EGFR L858R/T790M mutant. In addition, the half-maximal inhibitory concentration (IC50) is 19.3 nM in experiment [2]; 1.08 nM on CLK1; 2.38 nM on CLK2; 61.8 nM at CLK3; 1.56 nM at CLK4.

In the case of `Cc1c2c(nn1C)OCCOCc1c(cnn1C)-c1ccc3[nH]nc(c3c1)/C=C/2` [Ex. 7, (17E)-8,15,16-trimethyl-2,8,9,11,12,15-hexahydro-3,5-etheno[1,4]dioxacyclopentadecino[11,10-c:15,14-c′:6,7-c″]tripyrazole], the concentration for half-maximal inhibition (IC50) on EGFR WT was more than 1000 nM; on EGFR (D770_N771insNPG) it was 2120 nM; against EGFR Δ746-750 mutant it was 898 nM; against EGFR L858R mutant it was 687 nM; in experiment [2], 202 nM; on CLK1, 0.2 nM. For the same molecule, the IC50 on CLK2 was 0.08 nM; on CLK3, 45.2 nM; on CLK4, 0.48 nM.

On to `C[C@H](C#N)Oc1nn(CCO)c2c1/C=C/c1n[nH]c3cc(F)c(cc13)-c1cnn(C)c1O[C@@H](C)CN(C)C2` [Ex. 268, (2R)-2-{[(10S,17E)-19-fluoro-14-(2-hydroxyethyl)-8,10,12-trimethyl-2,10,11,12,13,14-hexahydro-8H-3,5-ethenotripyrazolo[3,4-f:3′,4′-j:4″,3″-n][1,4]oxazacyclopentadecin-16-yl]oxy}propanenitrile], for which the half-maximal inhibitory concentration (IC50) at EGFR WT amounted to 7.91 nM; at EGFR (D770_N771insNPG), 30.5 nM; against EGFR Δ746-750 mutant, 2.01 nM; in experiment [1] it was 1.32 nM; on EGFR L858R mutant, 4.35 nM; on EGFR L858R/T790M mutant, 1.04 nM. Also, the IC50 was 0.52 nM in [2]; 0.57 nM at CLK1; 0.18 nM at CLK2; 45.1 nM at CLK3; 1.22 nM on CLK4.

For the molecule `C[C@@H](C#N)Oc1nn(CCO)c2c1/C=C/c1n[nH]c3cc(F)c(cc13)-c1cnn(C)c1O[C@@H](C)CN(C)C2` [Ex. 269, (2S)-2-{[(10S,17E)-19-fluoro-14-(2-hydroxyethyl)-8,10,12-trimethyl-2,10,11,12,13,14-hexahydro-8H-3,5-ethenotripyrazolo[3,4-f:3′,4′-j:4″,3″-n][1,4]oxazacyclopentadecin-16-yl]oxy}propanenitrile], the half-maximal inhibitory concentration (IC50) worked out at 20.3 nM at EGFR WT; 102 nM on EGFR (D770_N771insNPG); 5.25 nM against EGFR Δ746-750 mutant; 2.56 nM in experiment [1]; 8.53 nM at EGFR L858R mutant; 1.82 nM against EGFR L858R/T790M mutant. The concentration for half-maximal inhibition (IC50) in experiment [2] worked out at 0.67 nM; on CLK1, 0.94 nM; at CLK2, 0.32 nM; at CLK3 it was 238 nM; on CLK4, 1.76 nM.

In the case of `Cc1nn(C)c2c1/C=C/c1n[nH]c3ccc(cc13)-c1cnn(C)c1OCCN(C)C2` [Example 43, (17E)-8,12,14,16-tetramethyl-2,10,11,12,13,14-hexahydro-8H-3,5-ethenotripyrazolo[3,4-f:3′,4′-j:4″,3″- n][1,4]oxazacyclopentadecine], the half-maximal inhibitory concentration (IC50) against EGFR WT is 543 nM; at EGFR (D770_N771insNPG), 541 nM; against EGFR Δ746-750 mutant, 74.8 nM; in experiment [1] it was 133 nM; on EGFR L858R mutant, 144 nM; at EGFR L858R/T790M mutant, 13.5 nM. In addition, the 50% inhibitory concentration (IC50) in [2] stood at 34.5 nM; on CLK1, 0.1 nM; at CLK2, 0.14 nM; on CLK3 it was 236 nM; on CLK4, 0.25 nM.

On to `Cc1nn(C)c2c1/C=C/c1n[nH]c3ccc(cc13)-c1cnn(C)c1CN(C)CCO2` [Example 55, (17E)-8,10,14,16-tetramethyl-2,9,10,11,12,14-hexahydro-8H-3,5-ethenotripyrazolo[3,4-f:4′,3′-j:4″,3″- n][1,4]oxazacyclopentadecine], for which the IC50 at EGFR WT was determined as 101 nM; at EGFR (D770_N771insNPG), 78.3 nM; against EGFR Δ746-750 mutant it was 33.4 nM; in experiment [1], 8.93 nM; at EGFR L858R mutant, 35.2 nM; in [2] it was 4.1 nM. In addition, the IC50 worked out at 0.09 nM at CLK1, 0.13 nM on CLK2, 185 nM on CLK3 and 0.58 nM on CLK4.

`CCN1Cc2nn(C)c(C)c2/C=C/c2n[nH]c3ccc(cc23)-c2cnn(C)c2O[C@@H](C)C1` [Example 59, (10S,17E)-12-ethyl-8,10,15,16-tetramethyl-2,10,11,12,13,15-hexahydro-8H-3,5-ethenotripyrazolo[3,4-f:3′,4′-j:4″,3″-n][1,4]oxazacyclopentadecine]: the IC50 against EGFR WT was 44.1 nM; at EGFR (D770_N771insNPG) it was 127 nM; against EGFR Δ746-750 mutant it was 18.6 nM; in experiment [1], 2.42 nM; on EGFR L858R mutant, 7.63 nM; at EGFR L858R/T790M mutant, 0.7 nM. Further, the half-maximal inhibitory concentration (IC50) in experiment [2] amounted to 1.02 nM; on CLK1, 0.82 nM; on CLK2 it was 2.13 nM; at CLK3, 541 nM; at CLK4, 2.03 nM.

For the molecule `Cc1nn(CCO)c2c1/C=C/c1n[nH]c3ccc(cc13)-c1cnn(C)c1O[C@@H](C)CN(C)C2` [Example 61, 2-[(10S,17E)-8,10,12,16-tetramethyl-2,8,10,11,12,13-hexahydro-14H-3,5-ethenotripyrazolo[3,4-f:3′,4′-j:4″,3″- n][1,4]oxazacyclopentadecin-14-yl]ethan-1-ol], the IC50 against EGFR WT turned out to be 6.19 nM; on EGFR (D770_N771insNPG) it was 9.21 nM; on EGFR Δ746-750 mutant it was 1.08 nM; in experiment [1], 1.96 nM; against EGFR L858R mutant it was 1.23 nM; on EGFR L858R/T790M mutant, 0.29 nM. The IC50 was determined as 0.17 nM in experiment [2]; 0.21 nM on CLK1; 0.06 nM at CLK2; 21.4 nM at CLK3; 0.76 nM on CLK4.

For the molecule `Cc1nn(C)c2c1/C=C/c1n[nH]c3ccc(cc13)-c1cnn(C)c1OCCN1CC[C@@H](O2)C1=O` [Example 109, (10R,15E)-3,12,14-trimethyl-5,6,9,10,12,18-hexahydro-3H,8H-19,21-etheno-7,10-methanotripyrazolo[3,4-i:3′,4′-m:4″,3″-q][1,8,4]dioxazacyclooctadecin-24-one], the IC50 against EGFR WT amounted to 856 nM; at EGFR (D770_N771insNPG), 298 nM; against EGFR Δ746-750 mutant, 38 nM; in [1], 152 nM; at EGFR L858R mutant, 165 nM; against EGFR L858R/T790M mutant it was 15.9 nM. Moreover, the IC50 in experiment [2] amounted to 47.1 nM; at CLK1, 0.46 nM; at CLK2, 0.09 nM; at CLK3 it was 2 nM; on CLK4 it was 0.85 nM.
